These compounds were tested against Recombinant human ULK1 (1-649) (Homo sapiens (Human), UniProt O75385) (assay: ULK1 ADP Glo kinase activity assay (MBP substrate)). Details: 25° C., 40 minutes, read-out: ULK1 biochemical IC50.
Protocol: Recombinant human ULK1 (1-649) protein expressed in Sf9 insect cells was obtained from SignalChem (Vancouver, BC), catalog #U01-11G. Active kinase was purified via N-terminal GST tag to >85% purity.
ADP GLO Kinase Assay Reagents were obtained from Promega Corp (Madison, WI), catalog #V9104.
MBP (myelin basic protein) substrate, bovine, purified, was obtained from Sigma (St. Louis, MO), catalog #M1891.
ULK1 inhibitor potency was determined using the luminescent ADP Glo Kinase Assay (Promega), a universal ADP detection system that measures kinase activity by quantifying the amount of ADP produced during a kinase reaction. ULK1 kinase reactions are performed in a standard 96-well microplate (20 uL reaction volume) at 25° C. for 40 minutes in the presence or absence of the test compound (12-point dilution series starting at 10 uM). Addition of MBP substrate and ATP initiates the kinase reaction.
The standard ADP Glo assay is performed in two steps. In step one, following the kinase reaction, an equal volume of ADP-Glo™ Reagent (20 uL) is added to terminate the kinase reaction and deplete the remaining ATP. In the second step, the Kinase Detection Reagent (10 uL) is added to simultaneously convert ADP to ATP and allow the newly synthesized ATP to be measured using a luciferase/luciferin reaction. Step two of the ADP Glo assay is performed in a white 384-well plate (20 uL final volume). Thirty minutes after the addition of the Detection reagent, light generated from the luciferase reaction is measured (1 second exposure) using a microplate compatible luminometer (CLARIOstar, BMG Labtech).
Inhibition of ULK1 kinase activity is determined for each test compound by comparison to DMSO only control wells. Inhibitor IC50 was calculated by plotting the change in luminescence after 30 minutes (response) versus inhibitor concentration (in log molar) then applying the four-parameter variable slope curve fit (GraphPad Prism). Inhibition of ULK1 in biochemical assay is found in Table 3.

Sequence of Recombinant human ULK1 (1-649) (O75385 1-649): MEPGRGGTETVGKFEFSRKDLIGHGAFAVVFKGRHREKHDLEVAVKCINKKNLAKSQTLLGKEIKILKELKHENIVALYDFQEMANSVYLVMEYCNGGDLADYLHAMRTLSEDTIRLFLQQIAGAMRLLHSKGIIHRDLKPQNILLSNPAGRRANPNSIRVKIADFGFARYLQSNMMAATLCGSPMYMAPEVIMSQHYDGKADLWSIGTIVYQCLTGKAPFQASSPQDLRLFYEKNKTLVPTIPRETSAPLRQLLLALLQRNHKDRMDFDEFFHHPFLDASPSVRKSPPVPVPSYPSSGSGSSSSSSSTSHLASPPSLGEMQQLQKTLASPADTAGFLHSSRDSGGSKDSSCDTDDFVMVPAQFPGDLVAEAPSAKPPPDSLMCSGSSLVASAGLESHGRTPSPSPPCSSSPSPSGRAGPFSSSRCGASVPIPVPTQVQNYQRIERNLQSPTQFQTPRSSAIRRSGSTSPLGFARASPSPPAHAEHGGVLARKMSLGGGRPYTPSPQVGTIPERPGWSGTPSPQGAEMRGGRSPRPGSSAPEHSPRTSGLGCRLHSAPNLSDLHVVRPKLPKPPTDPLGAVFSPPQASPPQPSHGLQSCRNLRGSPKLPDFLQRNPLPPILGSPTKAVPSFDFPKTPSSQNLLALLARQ

| Compound | IC50 [nM] |
| --- | --- |
| CCc1cc2c(cc1Nc1ncc(C(F)(F)F)c(-c3cc(S(C)(=O)=O)cs3)n1)CN(C)C2 [Example 76, 6-ethyl-2-methyl-N-(4-(4-(methylsulfonyl)thiophen-2-yl)-5-(trifluoromethyl)pyrimidin-2-yl)isoindolin-5-amine] | 10 to 50 |
| CCc1cc2c(cc1Nc1ncc(C(F)(F)F)c(-c3cc(C(N)=O)cs3)n1)CN(C)C2 [Example 20, 5-(2-((6-Ethyl-2-methylisoindolin-5-yl)amino)-5-(trifluoromethyl)pyrimidin-4-yl)thiophene-3-carboxamide] | 10 to 50 |
| CS(=O)(=O)c1csc(-c2nc(Nc3cn(C4CCNCC4)nc3C3CC3)ncc2C(F)(F)F)c1 [Example 128, N-(3-Cyclopropyl-1-(piperidin-4-yl)-1H-pyrazol-4-yl)-4-(4-(methylsulfonyl)thiophen-2-yl)-5-(trifluoromethyl)pyrimidin-2-amine] | ≤ 10 |
| CS(=O)(=O)c1csc(-c2nc(Nc3cc4c(cc3Cl)CNCC4)ncc2Cl)c1 [Example 93, 7-chloro-N-(5-chloro-4-(4-(methylsulfonyl)thiophen-2-yl)pyrimidin-2-yl)-1,2,3,4-tetrahydroisoquinolin-6-amine] | ≤ 10 |
| CN1CCc2cc(Nc3ncc(C(F)(F)F)c(-c4cc(S(C)(=O)=O)cs4)n3)c(C3CC3)cc2C1 [Example 115, 7-cyclopropyl-2-methyl-N-[4-(4-methylsulfonyl-2-thienyl)-5-(trifluoromethyl)pyrimidin-2-yl]-3,4-dihydro-1H-isoquinolin-6-amine] | ≤ 10 |
| O=C1NCCOc2sc(-c3nc(Nc4cc5c(cc4Cl)CN(C(=O)C(F)(F)F)CC5)ncc3C(F)(F)F)cc21 [compound 70] | 10 to 50 |
| O=S1(=O)CCNCc2sc(-c3nc(Nc4cc5c(cc4Cl)CN(C4CC4)CC5)ncc3C(F)(F)F)cc21 [Example 117, 7-chloro-2-cyclopropyl-N-[4-(1,1-dioxo-2,3,4,5-tetrahydrothieno[2,3-f][1,4]thiazepin-7-yl)-5-(trifluoromethyl)pyrimidin-2-yl]-3,4-dihydro-1H-isoquinolin-6-amine] | ≤ 10 |
| Cc1nn(C2CN(C)C2)cc1Nc1ncc(C(F)(F)F)c(-c2cc(S(C)(=O)=O)cs2)n1 [Example 124, N-(3-methyl-1-(1-methylazetidin-3-yl)-1H-pyrazol-4-yl)-4-(4-(methylsulfonyl)thiophen-2-yl)-5-(trifluoromethyl)pyrimidin-2-amine] | 100 to 500 |
| Cc1cc2c(cc1Nc1ncc(C(F)(F)F)c(-c3cc(S(C)(=O)=O)cs3)n1)CN(C)C2 [Example 92, 2,6-dimethyl-N-(4-(4-(methylsulfonyl)thiophen-2-yl)-5-(trifluoromethyl)pyrimidin-2-yl)isoindolin-5-amine] | ≤ 10 |
| CN1Cc2cc(Nc3ncc(C(F)(F)F)c(-c4cc(S(C)(=O)=O)cs4)n3)c(C3CC3)cc2C1 [Example 88, 6-cyclopropyl-N-[4-(4-methanesulfonylthiophen-2-yl)-5-(trifluoromethyl)pyrimidin-2-yl]-2-methyl-2,3-dihydro-1H-isoindol-5-amine] | ≤ 10 |
| CS(=O)(=O)c1csc(-c2nc(Nc3cc4c(cc3Cl)CN(CC(F)(F)F)CC4)ncc2C(F)(F)F)c1 [Example 108, 7-chloro-N-[4-(4-methylsulfonyl-2-thienyl)-5-(trifluoromethyl)pyrimidin-2-yl]-2-(2,2,2-trifluoroethyl)-3,4-dihydro-1H-isoquinolin-6-amine] | 100 to 500 |
| CN1CCC(n2cc(Nc3ncc(C(F)(F)F)c(-c4cc5c(s4)CCNC5=O)n3)c(C3CC3)n2)CC1 [Example 48, 2-(2-((3-cyclopropyl-1-(1-methylpiperidin-4-yl)-1H-pyrazol-4-yl)amino)-5-(trifluoromethyl)pyrimidin-4-yl)-6,7-dihydrothieno[3,2-c]pyridin-4(5H)-one] | ≤ 10 |

The next lines start with the values.

| IC50 [nM] | Compound |
| --- | --- |
| ≤ 10 | O=c1[nH]ccc2sc(-c3nc(Nc4cc5c(cc4Cl)CNCC5)ncc3C(F)(F)F)cc12 [Example 23, 2-(2-((7-Chloro-1,2,3,4-tetrahydroisoquinolin-6-yl)amino)-5-(trifluoromethyl)pyrimidin-4-yl)thieno[3,2-c]pyridin-4(5H)-one] |
| ≤ 10 | COCCOc1sc(-c2nc(Nc3cc4c(cc3Cl)CN(C)CC4)ncc2C(F)(F)F)cc1S(C)(=O)=O [Example 57, 7-chloro-N-(4-(5-(2-methoxyethoxy)-4-(methylsulfonyl)thiophen-2-yl)-5-(trifluoromethyl)pyrimidin-2-yl)-2-methyl-1,2,3,4-tetrahydroisoquinolin-6-amine] |
| ≤ 10 | CS(=O)(=O)c1cc(-c2nc(Nc3cc4c(cc3Cl)CNCC4)ncc2C(F)(F)F)sc1C(N)=O [Example 59, 5-(2-((7-chloro-1,2,3,4-tetrahydroisoquinolin-6-yl)amino)-5-(trifluoromethyl)pyrimidin-4-yl)-3-(methylsulfonyl)thiophene-2-carboxamide] |
| ≤ 10 | O=S1(=O)NCCCc2sc(-c3nc(Nc4cc5c(cc4Cl)CNCC5)ncc3C(F)(F)F)cc21 [Example 84, 7-(2-((7-chloro-1,2,3,4-tetrahydroisoquinolin-6-yl)amino)-5-(trifluoromethyl)pyrimidin-4-yl)-2,3,4,5-tetrahydrothieno[2,3-f][1,2]thiazepine 1,1-dioxide] |
| 100 to 500 | CS(=O)(=O)c1cc(-c2nc(Nc3cc4c(cc3Cl)CNCC4)ncc2C(F)(F)F)sc1C(=O)N1CCOCC1 [Example 58, (5-(2-((7-chloro-1,2,3,4-tetrahydroisoquinolin-6-yl)amino)-5-(trifluoromethyl)pyrimidin-4-yl)-3-(methylsulfonyl)thiophen-2-yl)(morpholino)methanone] |
| ≤ 10 | NS(=O)(=O)c1csc(-c2nc(Nc3cc4c(cc3Cl)CNCC4)ncc2C(F)(F)F)c1 [Example 27, 5-(2-((7-Chloro-1,2,3,4-tetrahydroisoquinolin-6-yl)amino)-5-(trifluoromethyl)pyrimidin-4-yl)thiophene-3-sulfonamide] |
| ≤ 10 | CS(=O)(=O)c1cc(-c2nc(Nc3cc4c(cc3Cl)CNCC4)ncc2C(F)(F)F)sc1N1CCS(=O)(=O)CC1 [Example 90, 4-(5-(2-((7-chloro-1,2,3,4-tetrahydroisoquinolin-6-yl)amino)-5-(trifluoromethyl)pyrimidin-4-yl)-3-(methylsulfonyl)thiophen-2-yl)thiomorpholine 1,1-dioxide] |
| 10 to 50 | CS(=O)(=O)c1csc(-c2nc(Nc3cc4c(cc3Cl)CN(C3CC3)CC4)ncc2C(F)(F)F)c1 [Example 107, 7-chloro-2-cyclopropyl-N-[4-(4-methylsulfonyl-2-thienyl)-5-(trifluoromethyl)pyrimidin-2-yl]-3,4-dihydro-1H-isoquinolin-6-amine] |
| ≤ 10 | Cn1ccc2sc(-c3nc(Nc4cc5c(cc4Cl)CNCC5)ncc3C(F)(F)F)cc2c1=O [Example 30, 2-(2-((7-Chloro-1,2,3,4-tetrahydroisoquinolin-6-yl)amino)-5-(trifluoromethyl)pyrimidin-4-yl)-5-methylthieno[3,2-c]pyridin-4(5H)-one] |
| ≤ 10 | CN1CCc2cc(Cl)c(Nc3ncc(C(F)(F)F)c(-c4cc(S(C)(=O)=O)cs4)n3)cc2C1 [Example 100, 6-chloro-2-methyl-N-(4-(4-(methylsulfonyl)thiophen-2-yl)-5-(trifluoromethyl)pyrimidin-2-yl)-1,2,3,4-tetrahydroisoquinolin-7-amine] |
| ≤ 10 | CC1(C)NC(=O)c2cc(-c3nc(Nc4cc5c(cc4Cl)CNCC5)ncc3C(F)(F)F)sc21 [Example 40, 2-(2-((7-chloro-1,2,3,4-tetrahydroisoquinolin-6-yl)amino)-5-(trifluoromethyl)pyrimidin-4-yl)-6,6-dimethyl-5,6-dihydro-4H-thieno[2,3-c]pyrrol-4-one] |
| ≤ 10 | CN1C(=O)c2cc(-c3nc(Nc4cc5c(cc4Cl)CNCC5)ncc3C(F)(F)F)sc2C1(C)C [Example 42, 2-(2-((7-chloro-1,2,3,4-tetrahydroisoquinolin-6-yl)amino)-5-(trifluoromethyl)pyrimidin-4-yl)-5,6,6-trimethyl-5,6-dihydro-4H-thieno[2,3-c]pyrrol-4-one] |
| ≤ 10 | Cc1sc(-c2nc(Nc3cc4c(cc3Cl)CNCC4)ncc2C(F)(F)F)cc1C(N)=O [Example 45, 5-(2-((7-chloro-1,2,3,4-tetrahydroisoquinolin-6-yl)amino)-5-(trifluoromethyl)pyrimidin-4-yl)-2-methylthiophene-3-carboxamide] |
| ≤ 10 | O=C1NCCOc2sc(-c3nc(Nc4cc5c(cc4Cl)CNCC5)ncc3C(F)(F)F)cc21 [Example 71, 7-(2-((7-chloro-1,2,3,4-tetrahydroisoquinolin-6-yl)amino)-5-(trifluoromethyl)pyrimidin-4-yl)-3,4-dihydrothieno[3,2-f][1,4]oxazepin-5(2H)-one] |
| 50 to 100 | CNC(=O)c1csc(-c2nc(Nc3cc4c(cc3Cl)CNCC4)ncc2C(F)(F)F)c1 [Example 6, 5-(2-((7-chloro-1,2,3,4-tetrahydroisoquinolin-6-yl)amino)-5-(trifluoromethyl)pyrimidin-4-yl)-N-methylthiophene-3-carboxamide] |

From patent US20250144094A1 (Erasca, Inc., priority 2021, published 2025)
